Test system: E. coli strain 25922
Assay: Efficacy Study of E. coli Strain 25922 (coupon touch transfer to TSA plate)
Type: cell-based
Details: 60 s contact time, Rep 1 and 2
Description: On a coupon, 0.05 mL of the inocula (E. coli strain 25922) was added to the center of each test coupon and left to dry. Using a sterile glove, 0.05 grams of the test lotion was mechanically rubbed onto the test coupon to mimic rubbing hand sanitizer onto the skin of hands. There was a contact time of either 60 seconds or 4 hours allowed to lapse prior to placing the coupon touch transfer to the trypticase soy agar (TSA) plate. The coupon was then placed onto the TSA plate and allowed contact for 15 seconds in 3 different locations. The plates were then incubated for 24 hours at 37° C.

[1] = 0.05 grams lotion on inoculated coupon, TNTC = Too Numerous to Count

## CC(C)O [Control 17, isopropyl alcohol]
[1]
  Placement 1/CFU: 0 CFU
  Placement 2/CFU: 0 CFU
  Placement 3/CFU: 0 CFU
Criteria ~5 Log Reduction in 60 sec.
  Log Reduction: 6 Log

From US11484483B2, “Topical lotion having sanitizing properties” (Shear Kershman Laboratories, Inc, priority 2020, dated 2022)
